Experimental data published in ChEMBL document CHEMBL3616451, “Design and synthesis of 11α-substituted bile acid derivatives as potential anti-tuberculosis agents” (Bioorg Med Chem Lett, 2015).
Values after ≈ are worked out from the molar mass of the structure shown. Active and inactive are the calls of the source. No cut-off for these calls is given here.

Assays:
[1] = system: Mycobacterium tuberculosis; assay: Anti-tubercular activity against rifampicin, isoniazid, ethambutol and pyrazinamide-sensitive Mycobacterium tuberculosis H37Ra ATCC 25177 assessed as growth inhibition at 10 ug/ml by XRMA method relative to control; assay type: functional; conditions: for inhibition of growth at 10 µg/mL: read-out: GI
[2] = system: Mycobacterium tuberculosis; assay: Anti-tubercular activity against rifampicin, isoniazid, ethambutol and pyrazinamide-sensitive Mycobacterium tuberculosis H37Ra ATCC 25177 assessed as growth inhibition at 30 ug/ml by XRMA method relative to control; assay type: functional; conditions: read-out: GI
[3] = system: Mycobacterium tuberculosis; assay: Anti-tubercular activity against rifampicin, isoniazid, ethambutol and pyrazinamide-sensitive Mycobacterium tuberculosis H37Ra ATCC 25177 assessed as growth inhibition at 3 ug/ml by XRMA method relative to control; assay type: functional; conditions: for inhibition of growth at 3 µg/mL: read-out: GI
[4] = system: Bacillus subtilis; assay: Antibacterial activity against Bacillus subtilis ATCC 23857 assessed as growth inhibition at 30 ug/ml relative to control; assay type: functional
[5] = system: Pseudomonas fluorescens; assay: Antibacterial activity against Pseudomonas fluorescens ATCC 13525 assessed as growth inhibition at 30 ug/ml relative to control; assay type: functional; conditions: read-out: GI
[6] = system: Escherichia coli; assay: Antibacterial activity against Escherichia coli […] assessed as growth inhibition at 30 ug/ml relative to control; assay type: functional; conditions: read-out: GI
[7] = system: Staphylococcus aureus; assay: Antibacterial activity against Staphylococcus aureus ATCC 29213 assessed as growth inhibition at 30 ug/ml relative to control; assay type: functional; conditions: for inhibition of growth at 30 µg/mL: read-out: GI
[8] = system: Mycobacterium tuberculosis; assay: Anti-tubercular activity against rifampicin, isoniazid, ethambutol and pyrazinamide-sensitive active phage of Mycobacterium tuberculosis H37Ra ATCC 25177 infected in human THP1 cells by neutral red assay; assay type: functional, organism-based; conditions: H37Ra ATCC 25177, THP-1
[9] = system: Mycobacterium tuberculosis; assay: Anti-tubercular activity against rifampicin, isoniazid, ethambutol and pyrazinamide-sensitive active phage of Mycobacterium tuberculosis H37Ra ATCC 25177 by serial dilution method; assay type: functional, organism-based
[10] = system: Mycobacterium tuberculosis; assay: Anti-tubercular activity against rifampicin, isoniazid, ethambutol and pyrazinamide-sensitive dormant phage of Mycobacterium tuberculosis H37Ra ATCC 25177 by serial dilution method; assay type: functional, organism-based
[11] = system: Mycobacterium tuberculosis; assay: Anti-tubercular activity against rifampicin, isoniazid, ethambutol and pyrazinamide-sensitive dormant phage of Mycobacterium tuberculosis H37Ra ATCC 25177 infected in human THP1 cells by neutral red assay; assay type: functional, organism-based; conditions: H37Ra ATCC 25177, THP-1

Row | SMILES | inhibition of growth at 10 µg/mL [1] [%] | inhibition of growth at 30 µg/mL [2] [%] | inhibition of growth at 3 µg/mL [3] [%] | growth inhibition (GI) [3] | inhibition of growth at 30 µg/mL [5] [%] | inhibition of growth at 30 µg/mL [6] [%] | other results
1 | COC(=O)CC[C@@H](C)[C@H]1CC[C@H]2[C@@H]3[C@H](OC(C)=O)C[C@@H]4C[C@H](OC(C)=O)CC[C@]4(C)[C@H]3CC(=O)[C@]12C | 28 | 34 | 13 |  |  |  | 
2 | COC(=O)CC[C@@H](C)[C@H]1CC[C@H]2[C@H]3[C@H]([C@H](N=[N+]=[N-])C(=O)[C@]12C)[C@@]1(C)CC[C@@H](OC(C)=O)C[C@H]1C[C@H]3OC(C)=O |  | 12 |  | inactive |  |  | growth inhibition (GI) [1]: inactive
3 | C[C@H](CCC(=O)O)[C@H]1CC[C@H]2[C@@H]3[C@H](O)C[C@@H]4C[C@H](O)CC[C@]4(C)[C@H]3C[C@H](O)[C@]12C [CHOLIC ACID] | 36 | 53 |  | inactive |  |  | 
4 | COC(=O)CC[C@@H](C)[C@H]1CC[C@H]2[C@H]3[C@H]([C@H](NC(C)C)C(=O)[C@]12C)[C@@]1(C)CC[C@@H](OC(C)=O)C[C@H]1C[C@H]3OC(C)=O | 71 | 84 | 66 |  | 37.2 | 31.9 | inhibition of growth at 30 µg/mL ([4]; read-out: GI): 4.79%; inhibition of growth at 30 µg/mL [7]: 16.4%
5 | CCOC(=O)N[C@@H]1C(=O)[C@]2(C)[C@@H]([C@H](C)CCC(=O)OC)CC[C@H]2[C@H]2[C@H]1[C@@]1(C)CC[C@@H](OC(C)=O)C[C@H]1C[C@H]2OC(C)=O | 73 | 86 | 66 |  | 54.5 | 46.7 | growth inhibition (GI) [4]: inactive; inhibition of growth at 30 µg/mL [7]: 17.3%
6 | CO[C@H]1/C=C/O[C@@]2(C)Oc3c(C)c(O)c4c(O)c(c(/C=N/N5CCN(C)CC5)c(O)c4c3C2=O)NC(=O)/C(C)=C\C=C\[C@H](C)[C@H](O)[C@@H](C)[C@@H](O)[C@@H](C)[C@H](OC(C)=O)[C@@H]1C [RIFAMPIN] |  |  |  |  |  |  | IC50 [8]: 2.1 ng/mL (≈ 0.00255 µM); IC90 [8]: 51 ng/mL (≈ 0.062 µM); IC50 [9]: 1.8 ng/mL (≈ 0.00219 µM); IC90 [9]: 48 ng/mL (≈ 0.0583 µM); IC50 [10]: 1.4 ng/mL (≈ 0.0017 µM); IC90 [10]: 43 ng/mL (≈ 0.0523 µM); IC50 [11]: 1.8 ng/mL (≈ 0.00219 µM); IC90 [11]: 48 ng/mL (≈ 0.0583 µM)
7 | COC(=O)CC[C@@H](C)[C@H]1CC[C@H]2[C@H]3[C@H]([C@H](NC(=O)C4CN4)C(=O)[C@]12C)[C@@]1(C)CC[C@@H](OC(C)=O)C[C@H]1C[C@H]3OC(C)=O (some centres not stated) | 10 | 14 |  | inactive |  |  | 
8 | COC(=O)CC[C@@H](C)[C@H]1CC[C@H]2[C@H]3[C@H]([C@H](n4cc(-c5ccccn5)nn4)C(=O)[C@]12C)[C@@]1(C)CC[C@@H](OC(C)=O)C[C@H]1C[C@H]3OC(C)=O | 48 | 71 | 38 |  | 47.1 | 32.1 | growth inhibition (GI) [4]: inactive; growth inhibition (GI) [7]: inactive
9 | NNC(=O)c1ccncc1 [ISONIAZID] |  |  |  |  |  |  | IC50 [8]: 2.4 ng/mL (≈ 0.0175 µM); IC90 [8]: 75 ng/mL (≈ 0.547 µM); IC50 [9]: 1.9 ng/mL (≈ 0.0139 µM); IC90 [9]: 74 ng/mL (≈ 0.54 µM); IC50 [10]: 2.3 ng/mL (≈ 0.0168 µM); IC90 [10]: 75 ng/mL (≈ 0.547 µM); IC50 [11]: 2.4 ng/mL (≈ 0.0175 µM); IC90 [11]: 7.8 ng/mL (≈ 0.0569 µM)
10 | COC(=O)CC[C@@H](C)[C@H]1CC[C@H]2[C@H]3[C@H]([C@H](N)C(=O)[C@]12C)[C@@]1(C)CC[C@@H](OC(C)=O)C[C@H]1C[C@H]3OC(C)=O | < 1 | < 1 |  | inactive |  |  | 
